Source: patent US11492359B2, “Near-infrared nerve-sparing fluorophores” (OREGON HEALTH & SCIENCE UNIVERSITY, priority 2018, dated 2022)

What was measured:
[1] = UV-Vis absorption and fluorescence spectroscopy of the Oxazine library; assay type: physicochemical; settings: for Extinction coefficient: Beer's Law plots; for Quantum yield: relative, references Oxazine 1, Oxazine 170, Rhodamine 101
Description: All reagents were purchased from Sigma Aldrich, Fisher Scientific, TCI, or Ark Pharm. Unless otherwise indicated, all commercially available starting materials were used directly without further purification. Analytical thin layer chromatography (TLC) was performed on Millipore ready-to-use plates with silica gel 60 (F254, 32-63 μm). Flash chromatography was performed on Sorbent Technologies silica gel for column chromatography or on a Biotage Isolera Flash System using SNAP Ultra cartridges. High-resolution mass spectra (HRMS) were measured on a ThermoElectron LTQ-Orbitrap high resolution mass spectrometer with a dedicated Accela HPLC system, or an Agilent 6244 time-of-flight LCMS with diode array detector VL+. LCMS and Purity Characterization Mass-to-charge ratio and purity of the Oxazine compounds were characterized on an Agilent 6244 time-of-flight tandem liquid chromatography mass spectroscopy (LCMS) with diode array detector VL+. Sample (10 μL) was injected into a C18 column (Poroshell 120, 4.6×50 mm, 2.7 micron), and eluted with a solvent system of A (H2O, 0.1% FA) and B (MeCN, 01.% FA) at 0.4 mL/min, from A/B=90/10 to 5/95 over 10 min, maintained at A/B=5/95 for additional 5 min. Ions were detected in positive ion mode by setting the capillary voltage at 4 kV and gas temperature at 350° C. Purity was calculated through area under the curve analysis of the absorbance at 254 nm. UV-Vis Absorption and Fluorescence Spectroscopy. UV-Vis spectra were collected with a Cary 50 UV-Vis spectrophotometer at room temperature, using a 1-cm quartz cuvette. Fluorescence spectra were collected on a Cary Eclipse fluorescence spectrophotometer (Agilent Technologies). All absorbance spectra were reference corrected. Extinction coefficient was calculated from Beer's Law plots of absorbance versus concentration. Fluorescence spectra were corrected for the wavelength dependent response of the R928 photomultiplier tube using a manufacturer generated correction file. Relative quantum yields are reported as the average of multiple measurements using multiple references, including Oxazine 1, Oxazine 170, and Rhodamine 101. Physicochemical Property Calculation. Physicochemical partition coefficients (Log D) values at pH 7.4, number of hydrogen bond donors and acceptors, polar surface area, and the number of rotatable bonds were calculated using Marvin and JChem calculator plugins (ChemAxon, Budapest, Hungary). Nerve-Specificity Screening using Direct/Topical Administration Each compound was screened for its tissue-specificity using a previously published direct/topical administration strategy in murine brachial plexus and sciatic nerves.^1 Each compound from the Oxazine library was formulated in the previously utilized co-solvent formulation (10% DMSO, 5% Kolliphor, 65% serum and 20% phosphate buffered saline) at 125 μM. 100 μL of the formulated Oxazine were incubated on the exposed brachial plexus or sciatic nerve for 5 minutes. The fluorophore containing solution was removed and the area was irrigated with saline 18 times to remove any unbound fluorophore. Co-registered fluorescence and color images were collected of each stained area 30 minutes after Oxazine direct/topical administration using a custom built macroscopic imaging system with 620/60 nm excitation and 700/75 nm bandpass emission filters. Custom written MatLab code was used to analyze the tissue specific fluorescence where regions of interest were selected on the nerve, muscle and adipose tissue using the white light images. These regions of interest were then analyzed on the co-registered matched fluorescence images permitting assessment of the nerve to muscle and nerve to adipose ratios in blinded manner. […]

[2] = system: murine brachial plexus and sciatic nerves; assay: Nerve-specificity screening using systemic administration; assay type: in vivo; settings: IV, mice

Molecule	Max Abs [1] [nm]	Max Em [1] [nm]	Max Ex [1] [nm]	Extinction coefficient [1] [M⁻¹ cm⁻¹]	Quantum yield [1] [%]	toxicity upon systemic administration [2]
CC/N=c1/cc2oc3c4c5c(cc3nc-2cc1C)CCCN5CCC4 [LGW01-99, (Z)—N-(11-methyl-2,3,6,7-tetrahydro-1H,5H,12H-quinolizino[1,9-bc]phenoxazin-12-ylidene)ethanaminium]	648	667	650	56046	10.14	toxic upon systemic administration
c1c2c(cc3c1Oc1cc4c(cc1=N3)OCCN=4)OCCN2 [LGW03-65, 3,8,9,10-tetrahydro-2H-bis([1,4]oxazino)[2,3-b:3′,2′-i]phenoxazin-4-ium]	629	643	630	28067	27.39	–
CC[N+](CC)=c1ccc2nc3cc4c(cc3oc-2c1)NCC4 [LGW03-88, N-(2,3-dihydropyrrolo[3,2-b]phenoxazin-8(1H)-ylidene)-N-ethylethanaminium]	631	659	640	59737	6.22	–
CCCNc1cc2oc3c/c(=N/CC)c(C)cc-3nc2cc1C [LGW04-32, (Z)—N-(2,8-dimethyl-7-(propylamino)-3H-phenoxazin-3-ylidene)ethanaminium]	620	638	620	61084	39.77	–
CC/N=c1/cc2oc3cc(N(C)C)ccc3nc-2cc1C [LGW04-36, (Z)—N-(7-(dimethylamino)-2-methyl-3H-phenoxazin-3-ylidene)ethanaminium]	636	657	635	60819	8.15	–
CC/N=c1/cc2oc3cc(NC)c(C)cc3nc-2cc1C [LGW04-81, (Z)—N-(2,8-dimethyl-7-(methylamino)-3H-phenoxazin-3-ylidene)ethanaminium]	616	634	615	52291	39.47	–
c1cc2nc3ccc(=[N+]4CCCCC4)cc-3oc2cc1N1CCCCC1 [LGW04-91, 1-(7-(piperidin-1-yl)-3H-phenoxazin-3-ylidene)piperidin-1-ium]	663	689	665	85597	2.77	–
CCNc1cc2oc3cc(=[N+](CC)CC)ccc-3nc2cc1Cl [LGW05-33, N-(8-chloro-7-(ethylamino)-3H-phenoxazin-3-ylidene)-N-ethylethanaminium]	638	660	640	36166	3.84	–
CC/N=c1/cc2oc3cc(NCC)c(Cl)cc3nc-2cc1Cl [LGW05-39, (Z)—N-(2,8-dichloro-7-(ethylamino)-3H-phenoxazin-3-ylidene)ethanaminium]	620	638	620	18223	34.29	–
CC/N=c1/cc2oc3cc(NCC)c(Cl)cc3nc-2cc1C [LGW05-42, (Z)—N-(8-chloro-7-(ethylamino)-2-methyl-3H-phenoxazin-3-ylidene)ethanaminium]	612	636	615	41527	37.22	–
CCN1CCOc2cc3nc4ccc(=[N+](CC)CC)cc-4oc3cc21 [LGW05-65, N-ethyl-N-(4-ethyl-3,4-dihydro-[1,4]oxazino[2,3-b]phenoxazin-8(2H)-ylidene)ethanaminium]	661	684	665	61535	7.85	–
CCN1c2cc3c(cc2C(C)=CC1(C)C)N=c1cc2c(cc1O3)=[N+](CC)C(C)(C)C=C2C [LGW05-66, 1,11-diethyl-2,2,4,8,10,10-hexamethyl-10,11-dihydro-2H-dipyrido[3,2-b:2′,3′-i]phenoxazin-1-ium]	701	718	710	34002	36.68	–
CCN1CCOc2cc3c(cc21)Oc1cc2c(cc1=N3)OCC[N+]=2CC [LGW05-73, 4,8-diethyl-3,8,9,10-tetrahydro-2H-bis([1,4]oxazino)[2,3-b:3′,2′-i]phenoxazin-4-ium]	657	676	660	55570	32.95	–
CC/N=c1/cc2oc3cc4c(cc3nc-2cc1C)CCN4CC [LGW05-76, (Z)—N-(1-ethyl-7-methyl-2,3-dihydropyrrolo[3,2-b]phenoxazin-8(1H)-ylidene)ethanaminium]	628	650	630	45449	32.68	–
CC/N=c1/cc2oc3cc(NCC)c(F)cc3nc-2cc1C [LGW05-81, (Z)—N-(7-(ethylamino)-8-fluoro-2-methyl-3H-phenoxazin-3-ylidene)ethanaminium]	611	632	610	58410	43.02	–
CCNc1cc2oc3cc(=[N+](CC)CC)ccc-3nc2cc1F [LGW05-82, N-ethyl-N-(7-(ethylamino)-8-fluoro-3H-phenoxazin-3-ylidene)ethanaminium]	636	661	640	36833	2.70	–
Cc1cc2nc3cc(C)c(=N)cc-3oc2cc1N [LGW06-14, 7-amino-2,8-dimethyl-3H-phenoxazin-3-iminium]	590	606	590	39303	37.61	–
CCN1CCc2cc3c(cc21)Oc1cc2c(cc1=N3)CC[N+]=2CC [LGW07-59, 1,9-diethyl-2,3,7,8-tetrahydro-1H-dipyrrolo[3,2-b:2′,3′-i]phenoxazin-9-ium]	649	665	655	51130	32.17	–
CCN(CC)c1ccc2nc3ccc(=[N+](CC)CC)cc-3oc2c1.[O-][Cl+3]([O-])([O-])[O-] [OX-1, reference compound]	655	671	660	93211	7.40	–
(Z)—N-(7-(dimethylamino)-2-methyl-3H-phenoxazin-3-ylidene)ethanaminium [LGW04-84]	637	658	640	50981	3.95	–
N-ethyl-N-(2,2,4,8-tetramethyl-1,2-dihydro-9H-pyrido[3,2-b]phenoxazin-9-ylidene)ethanaminium [LGW01-56]	664	684	670	38832	11.68	–
